Assay results from patent US12478638B2, “Polymers, compositions and methods for treating hyperuricemia” (WATERSTONE PHARMACEUTICALS (WUHAN) CO., LTD., priority 2021, dated 2025).

System: rat model of hyperuricemia induced by adenine (100 mg/kg)+ethambutol (250 mg/kg)
Assay: Rat model of hyperuricemia induced by adenine + ethambutol; serum UA, CREA, UREA
Assay type: in vivo
Method: 40 rats were randomly divided into 5 groups with 8 rats in each group. The groups were as follows: Blank Group (Vehicle, ig); Model Group (Vehicle, ig); Positive control group (Allopurinol, 10 mg/kg, ig); Compound 1 group (Sevelamer carbonate, 250 mg/kg, ig); Compound 2 group (PAA polymer, 50 mg/kg, ig). Except for Blank group, rats in other groups were modeled according to the chronic modeling method. The modeling method was as follows: rats were given Adenine (100 mg/kg)+Ethambutol (250 mg/kg) by gavage, once a day, for 21 days. Animals in blank group and model group were given equal volume of normal saline by gavage. Animals in positive control group were given 10 mg/kg Alloalcohol by gavage, once in the first week, once in the second week, once a day for 3 days before sampling in the third week. Animals in each group were given intragastric administration once a day for 14 consecutive days from the 8th day of modeling. Blood samples were taken at Day 21 after modeling, and serum samples were separated and stored at −80[…] for biochemical detection.
After 21 days of modeling (14 days of drug treatment), blood samples were taken and serum separation was performed to detect three renal functions (UA, CREA and UREA) (See Table 1 and FIGS. 1a to 1c). Compound 1 is Sevelamer carbonate and Compound 2 is a polyallylamine-based copolymer having a general structure of formula (4) as described herein.

[1] = after 21 days of modeling, adenine + ethambutol model
[2] = serum, after 21 days of modeling (14 days of administration), ig, Allopurinol 10 mg/kg, Compound 1 250 mg/kg, Compound 2 50 mg/kg

Oc1ncnc2[nH]ncc12 [Allopurinol]
level of CREA compared with the model group (in words) [1]: significantly reduced | level of UA compared with the model group (in words) [1]: significantly reduced | level of UREA compared with the model group (in words) [1]: significantly reduced | CREA [2]: 54.73 ± 4.75 ^ μmol/L | UA [2]: 12.88 ± 6.01 µmol/L | UREA [2]: 5.82 ± 1.10 mmol/L
